# Measured values taken from patent publication US7410765B2, “System for protease mediated protein expression” (The Regents of the University of California, priority 2004, dated 2008).
# System: caspase-3
# Assay: Caspase-3-dependent DsRed fluorescence in live transgenic zebrafish embryos injected with the UbG-DEVDsRx reporter construct
# Format: in vivo
# Description: As discussed in detail below, the invention was tested by making a construct where the degradation signal is a non-removable ubiquitin moiety (G76V zebrafish ubiquitin mutant) fused to the red fluorescent protein DsRed Express by a linker containing a caspase-3 cleavage site (amino acid sequence: DEVD; SEQ ID NO: 1). […] The DNA construct was microinjected in one-cell-stage zebrafish embryos to generate transgenic fish where apoptotic cells express the red fluorescent marker.
# Specific labelling of apoptotic cells by UbG-DEVDsRx depends on a functional proteasomal degradation pathway because failure to degrade the UbG76V-tagged chimera would allow fluorescence to develop, even in the absence of caspase-3 activity.
# Morpholino-modified oligonucleotides were injected in the yolk of one-cell-stage embryos. DNA constructs were linearized and injected in the cytoplasm of one-cell-stage embryos. For each experiment, 200-250 transgenics were generated. Upon reaching the desired age, 20-30 embryos with similar transgene expression levels and low-mosaicism were selected for TUNEL labelling, confocal microscopy, in vivo observations and cell counts.
# Fixed and live embryos were embedded in 1.2% low-melt agarose on a glass slide and immersed in a drop of water to retain humidity.
smiles,measurement,setting,value
COC(=O)CC[C@H](NC(=O)[C@H](CC(=O)OC)NC(=O)OCc1ccccc1)C(=O)N[C@H](C(=O)N[C@@H](CC(=O)OC)C(=O)CF)C(C)C [Z-DEVD-FMK],expression of red fluorescence in embryo injected with the test construct,"embryo incubated in the presence of Z-DEVD-FMK, 75 μM, FIG. 1e",does not express any fluorescence
same,fluorescence (UbG-DEVDsRx labelling) in living transgenic embryos,"embryos exposed to the caspase-3 inhibitor, concentration not given",fluorescence is absent
